Here are results for three sequences from paper PMC8741514, “Post-translational modifications within tau paired helical filament nucleating motifs perturb microtubule interactions and oligomer formation” (The Journal of Biological Chemistry, 2021).

In the test the test system is T2R complex. The experiment in a line: STD NMR titration, tau peptide binding to T2R. More on the design: species or system porcine (tubulin isolated from porcine brain). The note with it: T2R 10 μM; for STD signal / binding to T2R: 1H STD NMR, peptide 2.8 mM, 600 MHz, saturation time 2 s, GPEM buffer pH 6.9; for STD signal / binding to T2R / apparent Kd / affinity for T2R (in words): 10 °C; for apparent Kd / affinity for T2R (in words): STD amplification factor fit, large errors, qualitative. Here is the method:
Tubulin protein isolated from porcine brain (97 or >99% pure) was purchased from Cytoskeleton, Inc, as a lyophilized powder. Stathmin-like RB3 domain (RB3SLD) binds to heterodimeric tubulin with a 1:2 stoichiometry, forming a longitudinal dimer of tubulin dimers. For ^1H,^15N HSQC NMR experiments, lyophilized tubulin was dissolved into a solution of 48 μM ^15N-labeled K18 (unmodified, modified, or mutant) containing 53 μM RB3 for a final T2R concentration of 50 μM in a buffer containing 25 mM Tris-d11, 25 mM NaCl, 2.5 mM EDTA, 1.5 mM DTT, and 10% heavy water (deuterium oxide [D2O]) at pH 6.7. For ^1H STD NMR experiments, 10 μM T2R was used for samples containing 0.044 to 2.8 mM peptide. Peptide was directly dissolved into buffer or water and added to 10 μM T2R in a buffer containing 25 mM Tris-d11, 25 mM NaCl, 2.5 mM EDTA, 1.5 mM DTT, and 10% D2O at pH 6.7.
STD spectra were recorded at 10 °C on a 600 MHz spectrometer equipped with a cryoprobe by using a series of 40 equally spaced 50 ms Gaussian-shaped pulses, 4096 scans, a saturation time of 2 s, and on/off-resonance frequencies set to −0.5 and 60 ppm, respectively. Samples for ^1H STD NMR were dissolved into GPEM buffer (80 mM PIPES, 2 mM MgCl2, and 0.5 mM EGTA, at pH 6.9). Spectra were processed and analyzed using Topspin 3.1 (Bruker). We quantify the binding of tau peptides to T2R with a series of STD titration experiments ([95]). STD NMR spectra of the ligand with and without T2R were recorded. The concentration of ligand (tau peptide) ranged from 0.04 to 2.8 mM; T2R concentration was maintained at 10 μM. From STD NMR spectra, STD signals were integrated and summed for both STDdiff and STDref over three regions, 8.565 to 7.771, 7.584 to 7.384, and 7.073 to 6.681 ppm. From STDdiff and STDref, STD AFs (STDAF) were calculated according to Equation 1, where [L] is the concentration of peptide (0.04–2.8 mM) and [R] is the concentration of T2R (10 μM). […] STD-AF values (at a fixed saturation time) of a peptide were fitted according to Equation 2, where αSTD represents the maximum STD AF ([72]). For peptide concentration of […] and T2R concentration of 10 μM, we generated STD build-up curves by recording the STD difference signal at increasing saturation times of 0.1 to 4 s. […] (2) STDAF([L])=αSTD∗[L]/Kd+[L] (3) STDAF(t)=STDmax(1−e^(−Ksat∗t)) STD0=STDmax∗Ksat

Entries after “also recorded” stand apart in the source; their conditions may differ.

Regarding “NIKHVPGGGSVQIVY {succinyl-K} PVDLSKVTSK [Succinyl-K311 296 to 321, K311 succinylated form of the 296 to 321 peptide]”, the “STD signal / binding to T2R” value (listed as succinylation at residue K311) is “loss of binding is evident; also recorded: Decreases in binding”. Further, the “apparent Kd / affinity for T2R (in words)” value (“apparent Kd / affinity” below) reads like this: (peptide 0.044 to 2.8 mM, listed as Succinylation at K311) “trend toward lower apparent affinity”; (peptide 0.044 to 2.8 mM, listed as Succinylation of K311) “trend toward reduced binding, though to a lesser extent”. For the same sequence, the “apparent Kd increase vs 296 to 321 peptide” value (STD-AF, peptide 0.044 to 2.8 mM, trend) is listed as “ca. twofold”.
On to “NIKHVPGGGSVQIV {phospho-Y} KPVDLSKVTSK [Phos-Y310 296 to 321, Y310 phosphorylated form of the 296 to 321 peptide]”, for which the “STD signal / binding to T2R” value (listed as phosphorylation at residue Y310) is reported as “weaker STD signal; also recorded: Decreases in binding”. Moreover, the “apparent Kd / affinity” value runs as follows: (peptide 0.044 to 2.8 mM, listed as Y310 phosphorylated peptide) “severely reduced peptide binding to T2R”; (peptide 0.044 to 2.8 mM, listed as Y310 phosphorylated peptides) “precluded a reliable fit”; (peptide 0.044 to 2.8 mM, listed as phosphorylation at Y310) “linear binding curve over the accessible range of peptide concentrations, precluding a robust fit to the data, but indicating a more severe reduction in affinity”.
“NLKHQPGGGKVQIIN {acetyl-K} KLDLSNVQSK [Acetyl-K280 265 to 290, K280 acetylated form of the 265 to 290 peptide]”: the “STD signal / binding to T2R” value (listed as acetylation at K280) is “further weakened” and the “STD signal / binding to T2R” value (listed as acetylation at residue K280) was “Decreases in binding”. Also, the “apparent Kd / affinity” value (peptide 0.044 to 2.8 mM, listed as K280 acetylation) is given as “trend toward reduced binding, though to a lesser extent”.
